Reference: patent US20240228493A1, “LRRK2 INHIBITORS AND USES THEREOF” (NEURON23, ICN., priority 2022, published 2024)

What was measured:
[1] = Human liver microsomal clearance (hLM Cl); type: in vitro ADME; conditions: values marked *: human liver microsomal Clearance
[2] = target: T1, wt human LRRK2, catalytic site (Homo sapiens, UniProt Q5S007); experiment: TR-FRET LanthaScreen Tb Kinase Activity Assay, LRRK2 inhibition; type: biochemical; conditions: 2 nM wt human LRRK2, 400 nM peptide, 38 μM ATP
T1 construct: wt human LRRK2, catalytic site, catalytic site (ThermoFisher/USA); purchased ThermoFisher
T1 sequence (Q5S007 1879-2138 limits assumed): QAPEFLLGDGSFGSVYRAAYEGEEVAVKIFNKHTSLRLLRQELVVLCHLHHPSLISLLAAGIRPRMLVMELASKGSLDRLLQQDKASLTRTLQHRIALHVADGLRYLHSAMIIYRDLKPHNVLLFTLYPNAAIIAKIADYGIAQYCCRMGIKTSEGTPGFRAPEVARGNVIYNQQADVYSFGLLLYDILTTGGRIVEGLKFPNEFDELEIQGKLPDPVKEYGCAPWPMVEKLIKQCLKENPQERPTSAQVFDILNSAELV
How it was run: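 Fluorescein-ERM (LRRKtide) peptide (400 nM) phosphorylated by 2 nM wt human LRRK2 catalytic site with 38 μM ATP in 1× Kinase Buffer A, 120 min at room temperature after 15 min compound–kinase preincubation. EDTA plus Tb-anti-pLRRKtide antibody added, read after 60 min; inhibition from TR-FRET emission ratios.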

Caco-2 cells = experiment: Caco-2 bidirectional permeability; type: in vitro ADME; conditions: for Caco-2 ER: Efflux Ratio=Papp(BA)/Papp(AB); for Caco-2 A2B (10^−6 cm/s): apical to basolateral; for Caco-2 A2B (10^−6 cm/s) / Caco-2 B2A (10^−6 cm/s): 2 hours, pH 7.4; for Caco-2 B2A (10^−6 cm/s): basolateral to apical
How it was run: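 Caco-2 monolayers were grown 21–28 days on PET inserts and run in duplicate in HBSS with 10 mM HEPES, pH 7.4. Test compound was dosed bidirectionally at […] for 2 h at 37 °C; quantification was by LC-MS/MS. Papp and efflux ratio (B-A/A-B) were calculated, with lucifer yellow monolayer integrity checks.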

human hepatocyte = experiment: Human hepatocyte stability, predicted hepatic clearance (h-Hept CL predict); type: in vitro ADME; conditions: human hepatocytes, 0.5×10^6 cells/mL, 1 μM, values without asterisk
How it was run: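 Cryopreserved human hepatocytes, 0.5×10^6 viable cells/mL in William's E/GlutaMAX, incubated with compound at 1 μM final, duplicates. Sampling at 0-120 min, LC/MS/MS parent loss gives t1/2, converted to CLint and scaled to predicted hepatic clearance (well-stirred model, fub assumed 1).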

Structure (SMILES)	hLM Cl (mL/min/kg) [1]	IC50 [2] [nM]	Caco-2 ER (Caco-2 cells)	Caco-2 A2B (10^−6 cm/s) (Caco-2 cells)	Caco-2 B2A (10^−6 cm/s) (Caco-2 cells)	hHep Cl (mL/min/kg) (human hepatocyte)
Cc1n[nH]c2c1N=C(c1c(F)cccc1F)Nc1c-2cc(N2CCO[C@H]([C@@H](C)O)C2)nc1C [Example 45, (R)-1-((S)-4-(5-(2,6-difluorophenyl)-3,7-dimethyl-1,6-dihydropyrazolo[4,3-d]pyrido[4,3-f][1,3]diazepin-9-yl)morpholin-2-yl)ethan-1-ol]	L* (L (Low Cl)”: Hep Cl (mL/min/kg)<6.3)	1 to 100	L (L (Likely)”: ER≥2.5)	L (L (Low permeability)”: A2B (B2A)<1)	H (H (High permeability)”: A2B (B2A)>5)	
Cc1n[nH]c2c1N=C(c1c(F)cccc1F)Nc1c-2cc(N2CCN(CCCF)CC2)nc1C [Example 32, 8-(2,6-difluorophenyl)-13-[4-(3-fluoropropyl)piperazin-1-y1]-5,11-dimethyl-3,4,7,9,12-pentazatricyclo[8.4.0.02,6]tetradeca-1(10),2(6),4,7,11,13-hexaene]	L* (L (Low Cl)”: Hep Cl (mL/min/kg)<6.3)	< 1	L (L (Likely)”: ER≥2.5)	M (M (Moderate permeability)”: 1≤A2B (B2A)≤5)	H (H (High permeability)”: A2B (B2A)>5)	
Cc1n[nH]c2c1N=C(c1c(F)cccc1F)Nc1cnc(N3CCC(C#N)CC3)cc1-2 [Example 48, 1-(5-(2,6-difluorophenyl)-3-methyl-1,6-dihydropyrazolo[4,3-d]pyrido[4,3-f][1,3]diazepin-9-yl)piperidine-4-carbonitrile]	I* (I (Intermediate Cl)”: 6.3≤Hep Cl (mL/min/kg)≤14.7)	1 to 100	L (L (Likely)”: ER≥2.5)	M (M (Moderate permeability)”: 1≤A2B (B2A)≤5)	H (H (High permeability)”: A2B (B2A)>5)	
Cc1n[nH]c2c1N=C(c1c(F)cccc1F)Nc1c-2cc(N2CCS(=O)(=O)CC2)nc1C [Example 46, 4-(5-(2,6-difluorophenyl)-3,7-dimethyl-1,6-dihydropyrazolo[4,3-d]pyrido[4,3-f][1,3]diazepin-9-yl)thiomorpholine 1,1-dioxide]	L* (L (Low Cl)”: Hep Cl (mL/min/kg)<6.3)	< 1	L (L (Likely)”: ER≥2.5)	L (L (Low permeability)”: A2B (B2A)<1)	H (H (High permeability)”: A2B (B2A)>5)	
Cc1n[nH]c2c1N=C(c1c(F)cccc1F)Nc1cnc(N3CCC[C@@](C)(C#N)C3)cc1-2 (single isomer, unassigned) [Example 12]	L* (L (Low Cl)”: Hep Cl (mL/min/kg)<6.3)	< 1	L (L (Likely)”: ER≥2.5)	M (M (Moderate permeability)”: 1≤A2B (B2A)≤5)	H (H (High permeability)”: A2B (B2A)>5)	
Cc1nc(N2CC3(COC3)C2)cc2c1NC(c1c(F)cccc1F)=Nc1cn[nH]c1-2 [Example 43, 6-(5-(2,6-difluorophenyl)-7-methyl-1,6-dihydropyrazolo[4,3-d]pyrido[4,3-f][1,3]diazepin-9-y1)-2-oxa-6-azaspiro[3.3]heptane]	L* (L (Low Cl)”: Hep Cl (mL/min/kg)<6.3)	1 to 100	L (L (Likely)”: ER≥2.5)	M (M (Moderate permeability)”: 1≤A2B (B2A)≤5)	H (H (High permeability)”: A2B (B2A)>5)	
Fc1cccc(F)c1C1=Nc2cn[nH]c2-c2cc(N3CC[C@@H](C(F)F)C3)ncc2N1 (single isomer, unassigned) [Example 34]	I* (I (Intermediate Cl)”: 6.3≤Hep Cl (mL/min/kg)≤14.7)	< 1	L (L (Likely)”: ER≥2.5)	M (M (Moderate permeability)”: 1≤A2B (B2A)≤5)	H (H (High permeability)”: A2B (B2A)>5)	
Cc1n[nH]c2c1N=C(c1c(F)cccc1F)Nc1c-2cc(N2CCOC3(COC3)C2)nc1C [Example 38, 8-(5-(2,6-difluorophenyl)-3,7-dimethyl-1,6-dihydropyrazolo[4,3-d]pyrido[4,3-f][1,3]diazepin-9-yl)-2,5-dioxa-8-azaspiro[3.5]nonane]	L* (L (Low Cl)”: Hep Cl (mL/min/kg)<6.3)	< 1	L (L (Likely)”: ER≥2.5)	M (M (Moderate permeability)”: 1≤A2B (B2A)≤5)	H (H (High permeability)”: A2B (B2A)>5)	
Cc1n[nH]c2c1N=C(c1c(F)cccc1F)Nc1c-2cc(N2CCC(O)CC2)nc1C [Example 40, 1-(5-(2,6-difluorophenyl)-3,7-dimethyl-1,6-dihydropyrazolo[4,3-d]pyrido[4,3-f][1,3]diazepin-9-yl)piperidin-4-ol]		< 1	L (L (Likely)”: ER≥2.5)	M (M (Moderate permeability)”: 1≤A2B (B2A)≤5)	H (H (High permeability)”: A2B (B2A)>5)	I (I (Intermediate Cl)”: 6.3≤Hep Cl (mL/min/kg)≤14.7)
Cc1n[nH]c2c1N=C(c1c(F)cccc1F)Nc1cnc(N3CCC(C)(C#N)CC3)cc1-2 [Example 17, 1-[8-(2,6-difluorophenyl)-5-methyl-3,4,7,9,12-pentazatricyclo[8.4.0.02,6]tetradeca-1(10),2(6),4,7,11,13-hexaen-13-y1]-4-methyl-piperidine-4-carbonitrile]	I* (I (Intermediate Cl)”: 6.3≤Hep Cl (mL/min/kg)≤14.7)	1 to 100	L (L (Likely)”: ER≥2.5)	H (H (High permeability)”: A2B (B2A)>5)	H (H (High permeability)”: A2B (B2A)>5)	
Cc1n[nH]c2c1N=C(c1c(F)cccc1F)Nc1cnc(N3CCC4(CC3)COC4)cc1-2 [Example 42, 7-(5-(2,6-difluorophenyl)-3-methyl-1,6-dihydropyrazolo[4,3-d]pyrido[4,3-f][1,3]diazepin-9-yl)-2-oxa-7-azaspiro[3.5]nonane]	L* (L (Low Cl)”: Hep Cl (mL/min/kg)<6.3)	1 to 100	L (L (Likely)”: ER≥2.5)	M (M (Moderate permeability)”: 1≤A2B (B2A)≤5)	H (H (High permeability)”: A2B (B2A)>5)	
